Patent US9029414B2, “Triterpenoid compounds and methods of use thereof” (Biotechnology Research Corporation, priority 2008, dated 2015)

Experiments:
[1] = system: C/EBP-b and c-fos expression in cortical neurons; test: C/EBP-b and c-fos mRNA (real-time PCR) in cortical neurons; type: cell-based; settings: vs DMSO
Experimental: FIG. 4. DA001 induces CEBPb mRNA in cortical neurons. Cortical neurons were incubated with DA001 or the DMSO control for 3 different time intervals. Gene expression was normalized against the house-keeping gene, hypoxanthine phosphoribosyltransferase 1 (HPRT1) and glyceraldehyde 3-phosphate dehydrogenase (GAPDH) and compared to the control (DMSO) treatment. Relative change in gene expression induced by DA001 was compared with DMSO. Asterisk represents P<0.05.
Cortical neurons of 11 DIV-12 DIV were pre-incubated with DA001 or DMSO for 24 hours. Cells were washed in Locke's medium without magnesium for 15 min, followed by the treatment of NMDA (20 μM) or water for 20 min. Neurons were incubated with normal growth medium and total RNA were extracted at different time intervals after or without NMDA treatment. Total RNA was extracted using RNeasy Mini kit (Qiagen) according to the manufacturer's protocol, and was reverse-transcribed into single-stranded cDNA with SuperScript II Reverse Transcriptase (Invitrogen) and oligo-dT primers. Real-time Quantitative PCR was performed using Power SYBR Green PCR Master Mix (Applied Biosystems) on the Mx3000P Real-Time PCR System (Stratagene). […]
Cortical neurons were treated with DA001 at different time intervals. The expression of CCAAT/enhancer binding protein beta (C/EBP-b) and c-fos was measured at three different time intervals by real-time PCR. […]

[2] = system: lymphocyte infiltrates in spinal cord of EAE mice; test: Hematoxylin and eosin staining of spinal cords of EAE mice; type: in vivo; settings: DA001-treated vs vehicle-treated EAE mice
Experimental: On day 21, animals were anesthetized intraperitoneally with 4% (w/v) chloral hydrate (BDH) in 0.9% (w/v) saline (USB). Once the anesthetics has set it, the animals were then perfused transcardially (Gilson) with 50 mL of 37° C., 0.005% (w/v) heparinized (Sigma) saline (USB), followed by 80 mL of ice-cold, 4% (w/v) paraformaldehyde (Sigma) in Dulbecco's Phosphate Buffered Saline (GIBCO). The perfused spinal cords were then further fixed in 4% (w/v) paraformaldehyde (Sigma) overnight at 4° C. After overnight incubation, the samples were prepared in an automated tissue processor for dehydration, clearing and paraffin infiltration (Leica EG1150H) followed by paraffin embedding (Leica RM2255). After overnight incubation at room temperature, the blocks were sectioned at 6 μm thickness on microtome (Leica 1250) and laid on Histobond slides (Merienfeld). The slides were incubated at 60 C oven for 24 h before being stained. On the day of staining, the slides were rehydrated in a series of EtOH solutions. The rehydrated slides were then submerged in hematoxyline solution for 20 min at room temperature. The slides were differentiated in acidic solution before being fixed in a series of EtOH solutions then eosin at 20 min in room temperature. […]

hippocampal neurons = test: Hippocampal neuron survival assay against NMDA excitotoxicity (LDH); type: cell-based, Sprague-Dawley rats; settings: 30 μM 24 hrs, NMDA 10-200 μM 20 min
Experimental: Hippocampal neurons/cortical neurons were prepared from embryonic day 18 Sprague-Dawley rats. After the cortices had been removed from the brain, isolated cells were plated onto Poly d-Lysine (PDL) (P0899, Sigma)-coated 48 well plates (150687, NUNC) at a density of 2×10^5 cell per well using Neurobasal Medium (NB) (21103-049, Gibco) with B27 supplement (17504-044, Gibco), penicillin/streptomycin (15140, Gibco) and 1 mM L-glutamine (25030, Gibco). The cell culture was incubated at 37° C. in a humidified atmosphere of 5% CO2 in air. Medium was changed to growth medium (Neurobasal Medium with penicillin/streptomycin and B27 supplement) after 3 hours. Half medium was changed with growth medium every 2-3 days to maintain the cells until day 10 in vitro (DIV 10). Serial dilutions of samples were prepared in growth medium and DMSO was used as vehicle control. For pre-treating assay, half of the medium was removed from wells, and equal amount of diluted samples were replaced. Cells were then incubated for 2 hours at 37° C. in a humidified atmosphere of 5% CO2 in air. […] Afterwards, cells were incubated in growth medium for 18-24 hours and detected with Cytotoxicity Detection Kit (1644793, Roche).
Hippocampal neurons were treated with DA021 and subsequently subjected to varying concentrations of NMDA. […] LDH release into the medium was then measured.

Row | Compound | C/EBP-b expression (mRNA) ([1]; after a 2-day treatment) | c-fos expression (mRNA) ([1]; similar conditions) | lymphocytes surrounding axons / lymphocyte infiltration in spinal cord (H&E) [2] | protection from NMDA-induced excitotoxicity (LDH release) (hippocampal neurons)
1 | C=C(C)[C@@H]1CC[C@]2(C(=O)O)CC[C@]3(C)C(CC[C@@H]4[C@@]5(C)CC[C@H](O[C@@H]6OC[C@H](O)[C@H](O)[C@H]6O[C@@H]6O[C@@H](C)[C@H](O)[C@@H](O)[C@H]6O)[C@@](C)(CO)[C@@H]5CC[C@]43C)[C@@H]12 (stereo partly drawn) [DA001, 3-O-[α-L-rhamnopyranosyl-(1→2)-α-L-arabinopyranosyl]-3,23-dihydroxy-20(29)-lupen-28-oic acid] | induced C/EBP-b expression | did not affect expression of c-fos | dramatically reduced | 
2 | C=C(C)[C@@H]1CC[C@]2(/C=N/O)CC[C@]3(C)C(CCC4[C@@]5(C)CCC(=O)[C@@](C)(CO)[C@@H]5CC[C@]43C)C12 (stereo partly shown) [DA021] |  |  |  | protects neurons against differing concentrations of NDMA
